Target: Beta-3 adrenergic receptor (Homo sapiens, UniProt P13945)
Experiment: DRUGMATRIX: Adrenergic beta3 radioligand binding (ligand: [125I] Cyanopindolol)
Assay type: cell membranes, HEK293, Membrane
Conditions: hek293; Not Active = under 50% inhibition at 10 µM

Beta-3 adrenergic receptor, sequence (P13945 whole entry): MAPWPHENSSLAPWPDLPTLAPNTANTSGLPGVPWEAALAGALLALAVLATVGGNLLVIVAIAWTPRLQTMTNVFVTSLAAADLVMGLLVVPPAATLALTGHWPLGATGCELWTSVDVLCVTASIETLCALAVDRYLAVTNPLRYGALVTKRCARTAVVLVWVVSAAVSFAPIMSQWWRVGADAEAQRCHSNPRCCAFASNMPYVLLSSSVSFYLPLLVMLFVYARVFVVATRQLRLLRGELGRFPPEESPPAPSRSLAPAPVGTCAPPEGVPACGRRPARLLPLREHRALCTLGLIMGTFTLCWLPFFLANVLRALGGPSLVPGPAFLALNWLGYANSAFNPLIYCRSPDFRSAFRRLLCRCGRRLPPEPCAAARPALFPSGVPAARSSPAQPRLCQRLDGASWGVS

Compound | IC50
COC1=C(OC)C(=O)C(CCCCCCCCCCO)=C(C)C1=O [IDEBENONE] | Not Active
Cc1c(OCC(F)(F)F)ccnc1C[S+]([O-])c1nc2ccccc2[nH]1 (stereo not drawn) [LANSOPRAZOLE] | Not Active
O=C(N/N=C/c1ccc([N+](=O)[O-])o1)c1cc([N+](=O)[O-])cc([N+](=O)[O-])c1O [NIFURSOL] | Not Active
COC(=O)Nc1nc2ccc(C(=O)c3cccs3)cc2[nH]1 [NOCODAZOLE] | Not Active
CCn1cc(C(=O)O)c(=O)c2cnc(N3CCCC3)nc21 [PIROMIDIC ACID] | Not Active
CCCN(CCC)S(=O)(=O)c1ccc(C(=O)O)cc1 [PROBENECID] | Not Active
CCCOc1ccc(C(=O)OCCN(CC)CC)cc1N [PROPARACAINE] | Not Active
CC(C)c1cccc(C(C)C)c1O [PROPOFOL] | Not Active
C[C@@H]1O[C@@H](O[C@@H]2C=C3CC[C@@H]4[C@H](CC[C@]5(C)[C@@H](c6ccc(=O)oc6)CC[C@]45O)[C@@]3(C)CC2)[C@H](O)[C@H](O)[C@H]1O [PROSCILLARIDIN] | Not Active

Target: 5-hydroxytryptamine receptor 6 (Homo sapiens, UniProt P50406); also: in other assays of this panel Not Active means under 50% inhibition at 10 µM
Sequence (P50406 whole entry): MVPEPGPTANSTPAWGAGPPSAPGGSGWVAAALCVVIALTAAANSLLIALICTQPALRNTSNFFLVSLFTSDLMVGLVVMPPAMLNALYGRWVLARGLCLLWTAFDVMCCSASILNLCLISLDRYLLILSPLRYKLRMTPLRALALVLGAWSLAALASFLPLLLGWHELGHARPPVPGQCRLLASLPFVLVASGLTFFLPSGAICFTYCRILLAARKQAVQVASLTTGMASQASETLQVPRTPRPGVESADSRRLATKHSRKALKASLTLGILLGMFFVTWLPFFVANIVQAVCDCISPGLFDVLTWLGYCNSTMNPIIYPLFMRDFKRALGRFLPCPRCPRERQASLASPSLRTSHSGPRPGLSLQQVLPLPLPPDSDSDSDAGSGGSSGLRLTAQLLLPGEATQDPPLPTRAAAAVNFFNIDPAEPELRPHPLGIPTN
Assay type: cell membranes, HeLa, Membrane
Conditions: hela

Compound | IC50
COC1=C(OC)C(=O)C(CCCCCCCCCCO)=C(C)C1=O [IDEBENONE] | Not Active
Cc1c(OCC(F)(F)F)ccnc1C[S+]([O-])c1nc2ccccc2[nH]1 (stereo not drawn) [LANSOPRAZOLE] | Not Active
O=C(N/N=C/c1ccc([N+](=O)[O-])o1)c1cc([N+](=O)[O-])cc([N+](=O)[O-])c1O [NIFURSOL] | Not Active
COC(=O)Nc1nc2ccc(C(=O)c3cccs3)cc2[nH]1 [NOCODAZOLE] | Not Active
CCn1cc(C(=O)O)c(=O)c2cnc(N3CCCC3)nc21 [PIROMIDIC ACID] | Not Active
CCCN(CCC)S(=O)(=O)c1ccc(C(=O)O)cc1 [PROBENECID] | Not Active
CCCOc1ccc(C(=O)OCCN(CC)CC)cc1N [PROPARACAINE] | Not Active
CC(C)c1cccc(C(C)C)c1O [PROPOFOL] | Not Active
C[C@@H]1O[C@@H](O[C@@H]2C=C3CC[C@@H]4[C@H](CC[C@]5(C)[C@@H](c6ccc(=O)oc6)CC[C@]45O)[C@@]3(C)CC2)[C@H](O)[C@H](O)[C@H]1O [PROSCILLARIDIN] | Not Active

Target: Cannabinoid receptor 1 (Homo sapiens, UniProt P21554); also: in other assays of this panel Not Active means under 50% inhibition at 10 µM
Sequence (P21554 whole entry): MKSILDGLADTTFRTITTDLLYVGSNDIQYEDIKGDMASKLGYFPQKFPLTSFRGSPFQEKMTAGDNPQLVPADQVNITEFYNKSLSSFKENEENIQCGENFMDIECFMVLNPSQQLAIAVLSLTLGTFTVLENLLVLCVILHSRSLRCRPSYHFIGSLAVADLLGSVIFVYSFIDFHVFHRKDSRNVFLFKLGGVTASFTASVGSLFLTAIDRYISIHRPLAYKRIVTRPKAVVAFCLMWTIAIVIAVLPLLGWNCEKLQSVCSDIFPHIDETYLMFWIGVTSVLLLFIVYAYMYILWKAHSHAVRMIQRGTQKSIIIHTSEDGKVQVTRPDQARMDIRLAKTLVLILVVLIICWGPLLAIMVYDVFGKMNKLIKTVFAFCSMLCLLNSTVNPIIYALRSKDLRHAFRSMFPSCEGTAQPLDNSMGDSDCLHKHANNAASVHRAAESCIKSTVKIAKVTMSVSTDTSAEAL
Assay type: cell membranes, Chem-1, Membrane
Conditions: chem-1

Compound | IC50
COC1=C(OC)C(=O)C(CCCCCCCCCCO)=C(C)C1=O [IDEBENONE] | Not Active
Cc1c(OCC(F)(F)F)ccnc1C[S+]([O-])c1nc2ccccc2[nH]1 (stereo not drawn) [LANSOPRAZOLE] | Not Active
O=C(N/N=C/c1ccc([N+](=O)[O-])o1)c1cc([N+](=O)[O-])cc([N+](=O)[O-])c1O [NIFURSOL] | Not Active
COC(=O)Nc1nc2ccc(C(=O)c3cccs3)cc2[nH]1 [NOCODAZOLE] | Not Active
CCn1cc(C(=O)O)c(=O)c2cnc(N3CCCC3)nc21 [PIROMIDIC ACID] | Not Active
CCCN(CCC)S(=O)(=O)c1ccc(C(=O)O)cc1 [PROBENECID] | Not Active
CCCOc1ccc(C(=O)OCCN(CC)CC)cc1N [PROPARACAINE] | Not Active
CC(C)c1cccc(C(C)C)c1O [PROPOFOL] | Not Active
C[C@@H]1O[C@@H](O[C@@H]2C=C3CC[C@@H]4[C@H](CC[C@]5(C)[C@@H](c6ccc(=O)oc6)CC[C@]45O)[C@@]3(C)CC2)[C@H](O)[C@H](O)[C@H]1O [PROSCILLARIDIN] | Not Active

Target: T1, C-X-C chemokine receptor type 2 (Homo sapiens, UniProt P25025); also: in other assays of this panel Not Active means under 50% inhibition at 10 µM
T1 sequence (P25025 whole entry): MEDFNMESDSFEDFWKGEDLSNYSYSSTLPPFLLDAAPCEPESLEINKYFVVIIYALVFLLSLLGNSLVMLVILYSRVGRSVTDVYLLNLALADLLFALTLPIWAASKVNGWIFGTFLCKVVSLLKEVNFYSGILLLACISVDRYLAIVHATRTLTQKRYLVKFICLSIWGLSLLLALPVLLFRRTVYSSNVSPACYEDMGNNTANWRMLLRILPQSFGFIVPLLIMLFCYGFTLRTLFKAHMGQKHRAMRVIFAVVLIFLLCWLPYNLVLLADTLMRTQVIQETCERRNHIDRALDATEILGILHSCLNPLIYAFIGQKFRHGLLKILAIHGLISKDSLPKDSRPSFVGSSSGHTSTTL
Assay type: cell membranes, Membrane
Conditions: cho-k1

Compound | IC50
COC1=C(OC)C(=O)C(CCCCCCCCCCO)=C(C)C1=O [IDEBENONE] | Not Active
Cc1c(OCC(F)(F)F)ccnc1C[S+]([O-])c1nc2ccccc2[nH]1 (stereo not drawn) [LANSOPRAZOLE] | Not Active
O=C(N/N=C/c1ccc([N+](=O)[O-])o1)c1cc([N+](=O)[O-])cc([N+](=O)[O-])c1O [NIFURSOL] | Not Active
COC(=O)Nc1nc2ccc(C(=O)c3cccs3)cc2[nH]1 [NOCODAZOLE] | Not Active
CCn1cc(C(=O)O)c(=O)c2cnc(N3CCCC3)nc21 [PIROMIDIC ACID] | Not Active
CCCN(CCC)S(=O)(=O)c1ccc(C(=O)O)cc1 [PROBENECID] | Not Active
CCCOc1ccc(C(=O)OCCN(CC)CC)cc1N [PROPARACAINE] | Not Active
CC(C)c1cccc(C(C)C)c1O [PROPOFOL] | Not Active
C[C@@H]1O[C@@H](O[C@@H]2C=C3CC[C@@H]4[C@H](CC[C@]5(C)[C@@H](c6ccc(=O)oc6)CC[C@]45O)[C@@]3(C)CC2)[C@H](O)[C@H](O)[C@H]1O [PROSCILLARIDIN] | Not Active

Test system: not listed separately
Experiment: DRUGMATRIX: GABAA, Chloride Channel, TBOB radioligand binding (ligand: [3H] TBOB)
Assay type: cell membranes, Rattus norvegicus, Wistar, Cerebral cortex, Membrane
Conditions: Not Active = under 50% inhibition at 10 µM

Compound | IC50 | Ki
COC1=C(OC)C(=O)C(CCCCCCCCCCO)=C(C)C1=O [IDEBENONE] | Not Active | Not Active
Cc1c(OCC(F)(F)F)ccnc1C[S+]([O-])c1nc2ccccc2[nH]1 (stereo not drawn) [LANSOPRAZOLE] | Not Active | Not Active
O=C(N/N=C/c1ccc([N+](=O)[O-])o1)c1cc([N+](=O)[O-])cc([N+](=O)[O-])c1O [NIFURSOL] | Not Active | Not Active
COC(=O)Nc1nc2ccc(C(=O)c3cccs3)cc2[nH]1 [NOCODAZOLE] | Not Active | Not Active
CCn1cc(C(=O)O)c(=O)c2cnc(N3CCCC3)nc21 [PIROMIDIC ACID] | Not Active | Not Active
CCCN(CCC)S(=O)(=O)c1ccc(C(=O)O)cc1 [PROBENECID] | Not Active | Not Active
CCCOc1ccc(C(=O)OCCN(CC)CC)cc1N [PROPARACAINE] | Not Active | Not Active
CC(C)c1cccc(C(C)C)c1O [PROPOFOL] | Not Active | Not Active
C[C@@H]1O[C@@H](O[C@@H]2C=C3CC[C@@H]4[C@H](CC[C@]5(C)[C@@H](c6ccc(=O)oc6)CC[C@]45O)[C@@]3(C)CC2)[C@H](O)[C@H](O)[C@H]1O [PROSCILLARIDIN] | Not Active | Not Active

Test system: not listed separately
Experiment: DRUGMATRIX: Platelet-Derived Growth Factor (PDGF) radioligand binding (ligand: [125I] PDGF)
Assay type: cell-based
Conditions: nih3t3; Not Active = under 50% inhibition at 10 µM

Compound | IC50 | Ki
COC1=C(OC)C(=O)C(CCCCCCCCCCO)=C(C)C1=O [IDEBENONE] | Not Active | Not Active
Cc1c(OCC(F)(F)F)ccnc1C[S+]([O-])c1nc2ccccc2[nH]1 (stereo not drawn) [LANSOPRAZOLE] | Not Active | Not Active
O=C(N/N=C/c1ccc([N+](=O)[O-])o1)c1cc([N+](=O)[O-])cc([N+](=O)[O-])c1O [NIFURSOL] | Not Active | Not Active
COC(=O)Nc1nc2ccc(C(=O)c3cccs3)cc2[nH]1 [NOCODAZOLE] | Not Active | Not Active
CCn1cc(C(=O)O)c(=O)c2cnc(N3CCCC3)nc21 [PIROMIDIC ACID] | Not Active | Not Active
CCCN(CCC)S(=O)(=O)c1ccc(C(=O)O)cc1 [PROBENECID] | Not Active | Not Active
CCCOc1ccc(C(=O)OCCN(CC)CC)cc1N [PROPARACAINE] | Not Active | Not Active
CC(C)c1cccc(C(C)C)c1O [PROPOFOL] | Not Active | Not Active
C[C@@H]1O[C@@H](O[C@@H]2C=C3CC[C@@H]4[C@H](CC[C@]5(C)[C@@H](c6ccc(=O)oc6)CC[C@]45O)[C@@]3(C)CC2)[C@H](O)[C@H](O)[C@H]1O [PROSCILLARIDIN] | Not Active | Not Active

Target: Cytochrome P450 3A4 (Homo sapiens, UniProt P08684); also: in other assays of this panel Not Active means under 50% inhibition at 10 µM
Sequence (P08684 whole entry): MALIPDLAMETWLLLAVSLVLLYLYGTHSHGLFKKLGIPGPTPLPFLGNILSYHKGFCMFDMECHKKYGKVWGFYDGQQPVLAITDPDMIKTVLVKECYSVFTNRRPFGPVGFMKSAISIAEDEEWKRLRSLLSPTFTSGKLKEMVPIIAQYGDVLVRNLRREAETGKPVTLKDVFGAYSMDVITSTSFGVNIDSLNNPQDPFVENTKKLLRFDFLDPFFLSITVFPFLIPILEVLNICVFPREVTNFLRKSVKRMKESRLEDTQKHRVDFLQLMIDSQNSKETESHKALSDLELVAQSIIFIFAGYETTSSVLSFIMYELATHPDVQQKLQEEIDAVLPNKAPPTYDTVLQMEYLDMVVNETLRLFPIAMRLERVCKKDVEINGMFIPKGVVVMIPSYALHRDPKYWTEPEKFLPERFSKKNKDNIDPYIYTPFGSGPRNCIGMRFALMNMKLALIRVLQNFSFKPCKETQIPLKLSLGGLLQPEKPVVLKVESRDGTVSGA
Conditions: bti-tn-5b1-4

Compound | IC50 | Ki
Cc1c(OCC(F)(F)F)ccnc1C[S+]([O-])c1nc2ccccc2[nH]1 (stereo not drawn) [LANSOPRAZOLE] | Not Active | Not Active
O=C(N/N=C/c1ccc([N+](=O)[O-])o1)c1cc([N+](=O)[O-])cc([N+](=O)[O-])c1O [NIFURSOL] | Not Active | Not Active
COC(=O)Nc1nc2ccc(C(=O)c3cccs3)cc2[nH]1 [NOCODAZOLE] | Not Active | Not Active
CCn1cc(C(=O)O)c(=O)c2cnc(N3CCCC3)nc21 [PIROMIDIC ACID] | Not Active | Not Active
CCCN(CCC)S(=O)(=O)c1ccc(C(=O)O)cc1 [PROBENECID] | Not Active | Not Active
CCCOc1ccc(C(=O)OCCN(CC)CC)cc1N [PROPARACAINE] | Not Active | Not Active
C[C@@H]1O[C@@H](O[C@@H]2C=C3CC[C@@H]4[C@H](CC[C@]5(C)[C@@H](c6ccc(=O)oc6)CC[C@]45O)[C@@]3(C)CC2)[C@H](O)[C@H](O)[C@H]1O [PROSCILLARIDIN] | Not Active | Not Active

Target: T2, Estrogen receptor (Homo sapiens, UniProt P03372); also: in other assays of this panel Not Active means under 50% inhibition at 10 µM
T2 sequence (P03372 whole entry): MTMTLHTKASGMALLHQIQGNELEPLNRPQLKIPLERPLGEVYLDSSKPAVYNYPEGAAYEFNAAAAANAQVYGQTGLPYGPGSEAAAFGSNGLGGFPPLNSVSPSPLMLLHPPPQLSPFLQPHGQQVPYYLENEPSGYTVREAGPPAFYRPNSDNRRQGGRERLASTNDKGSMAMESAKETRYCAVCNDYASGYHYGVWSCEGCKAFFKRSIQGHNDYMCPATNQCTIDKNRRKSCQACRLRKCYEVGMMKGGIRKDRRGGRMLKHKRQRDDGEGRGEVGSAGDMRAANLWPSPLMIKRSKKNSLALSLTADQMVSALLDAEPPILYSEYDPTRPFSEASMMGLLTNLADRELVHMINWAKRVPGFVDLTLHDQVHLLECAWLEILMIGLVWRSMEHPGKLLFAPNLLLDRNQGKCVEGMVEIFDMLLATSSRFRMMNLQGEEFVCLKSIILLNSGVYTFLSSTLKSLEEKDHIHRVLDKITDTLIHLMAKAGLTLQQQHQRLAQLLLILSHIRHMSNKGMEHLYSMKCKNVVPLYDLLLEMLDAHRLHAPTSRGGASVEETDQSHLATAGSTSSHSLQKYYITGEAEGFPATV
Conditions: sf9

Compound | IC50
COC1=C(OC)C(=O)C(CCCCCCCCCCO)=C(C)C1=O [IDEBENONE] | Not Active
CC(C)c1cccc(C(C)C)c1O [PROPOFOL] | Not Active
